Reference: patent publication US11214803B2, “Modulators of YAP1 expression” (Ionis Pharmaceuticals, Inc., priority 2019, dated 2022)
Marks after values point to notes of the source that are not given here. Strand notation (5' to 3'): a small letter for the sugar, then the base; units joined by * are phosphorothioate-linked, units joined directly phosphodiester-linked; [ ] holds rarer units or linkages, { } end groups; capitals alone tell only the bases. k = constrained ethyl (cEt); [5mC] = 5-methylcytosine; d = 2'-deoxy (DNA)

Test system: Yap1 mRNA
Assay: Antisense inhibition of human Yap1 in A-431 cells by cEt gapmers, single dose (Example 3, RTS36584)
Type: cell-based
Details: Table 8; A-431 cells, 5,000 cells per well, free uptake, 2,000 nM, approximately 48 hours; RTS36584; normalized to RIBOGREEN; Yap1 mRNA relative to untreated control cells
Procedure, shortened: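 Read-out is Yap1 mRNA as percent of untreated control, by quantitative RT-PCR normalized to total RNA (RiboGreen). Cells (A-431) received 2,000 nM of 3-10-3 cEt phosphorothioate gapmer via free uptake for roughly 48 hours.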

Row | Substance | YAP1 (% UTC)
1 | 958366 (antisense kT*kG*kT*dA*dG*d[5mC]*dT*dG*d[5mC]*dT*d[5mC]*dA*dT*kG*k[5mC]*kT) [Compound 958366] | 16* % UTC
2 | 958375 (antisense kA*kA*kA*dG*d[5mC]*d[5mC]*dT*dT*dA*dG*dA*dG*dT*k[5mC]*kA*kA) [Compound 958375] | 2 % UTC
3 | 958405 (antisense kT*kT*kA*dT*dG*dG*dG*dA*dT*dG*dA*dG*dT*kG*k[5mC]*kT) [Compound 958405] | 24 % UTC
4 | 958348 (k[5mC]*kG*kA*dG*dT*d[5mC]*d[5mC]*d[5mC]*d[5mC]*dG*d[5mC]*dG*dG*kA*k[5mC]*kG; antisense) [Compound 958348] | 122 % UTC
5 | 958386 (antisense kG*kG*k[5mC]*dG*d[5mC]*dG*d[5mC]*dG*d[5mC]*dA*dT*dT*dG*kT*kG*k[5mC]) [Compound 958386] | 111 % UTC
6 | 958388 (antisense kG*kG*kA*dG*dG*d[5mC]*dG*d[5mC]*dG*d[5mC]*dG*d[5mC]*dA*kT*kT*kG) [Compound 958388] | 112 % UTC
7 | 958380 (antisense k[5mC]*kG*k[5mC]*dG*d[5mC]*d[5mC]*d[5mC]*dG*d[5mC]*d[5mC]*d[5mC]*dG*d[5mC]*kA*k[5mC]*k[5mC]) [Compound 958380] | 106 % UTC

Same assay, conditions: Table 9; A-431 cells, 5,000 cells per well, free uptake, 2,000 nM, approximately 48 hours; RTS36584; normalized to RIBOGREEN; Yap1 mRNA relative to untreated control cells

Row | Substance | YAP1 (% UTC)
8 | 958436 (antisense kT*k[5mC]*k[5mC]*d[5mC]*dT*dT*dG*dA*d[5mC]*dG*dG*dA*dG*kG*k[5mC]*k[5mC]) [Compound 958436] | 124
9 | 958576 (kG*kT*kG*dG*d[5mC]*dT*dA*d[5mC]*dT*dG*dG*d[5mC]*dA*kA*kA*kT; antisense) [Compound 958576] | 53
10 | 958616 (antisense kG*kG*kT*dG*dG*dT*d[5mC]*dT*dT*dG*dT*dT*d[5mC]*kT*kT*kA) [Compound 958616] | 10
11 | 958761 (antisense kA*kG*kT*d[5mC]*dT*d[5mC]*dA*dA*d[5mC]*dA*dA*d[5mC]*d[5mC]*kT*kT*k[5mC]) [Compound 958761] | 7
12 | 958471 (antisense k[5mC]*kT*kT*dA*dG*dA*dT*d[5mC]*d[5mC]*dT*dT*d[5mC]*dA*k[5mC]*kA*kG) [Compound 958471] | 14
13 | 958661 (kT*kG*k[5mC]*d[5mC]*dG*dT*dT*dG*dG*d[5mC]*d[5mC]*d[5mC]*d[5mC]*kT*k[5mC]*k[5mC]; antisense) [Compound 958661] | 120

Same assay, conditions: Table 10; A-431 cells, 5,000 cells per well, free uptake, 2,000 nM oligonucleotide, approx. 48 hours; primer probe set RTS36584; Yap1 mRNA normalized to RIBOGREEN, percent of untreated control

Row | Substance | YAP1 (% UTC)
14 | 958712 (antisense kT*kT*kA*dT*dA*dT*dA*dG*dG*dT*dT*dA*d[5mC]*kA*kG*kA) [Compound 958712] | 52
15 | 958667 (kT*kG*k[5mC]*d[5mC]*dG*dG*dG*d[5mC]*d[5mC]*d[5mC]*d[5mC]*dT*dA*kT*kG*k[5mC]; antisense) [Compound 958667] | 80

Same assay, conditions: Table 11; A-431 cells, 5,000 cells per well, free uptake, 2,000 nM oligonucleotide, approx. 48 hours; primer probe set RTS36584; Yap1 mRNA normalized to RIBOGREEN, percent of untreated control

Row | Substance | YAP1 (% UTC)
16 | 958443 (antisense k[5mC]*kT*k[5mC]*d[5mC]*dA*d[5mC]*dG*dG*dG*d[5mC]*d[5mC]*dG*dA*kG*kG*kT) [Compound 958443] | 90
17 | 958678 (kG*kG*kA*dG*dG*dA*dG*dT*d[5mC]*dA*d[5mC]*d[5mC]*dA*kT*kG*kG; antisense) [Compound 958678] | 74
18 | 958703 (antisense kG*kA*kT*dA*dA*d[5mC]*dT*dA*dA*dG*d[5mC]*dA*d[5mC]*kT*kA*k[5mC]) [Compound 958703] | 49
19 | 958533 (kG*k[5mC]*kA*dT*dA*dG*dA*dA*dG*dT*dA*dG*dG*kA*kG*k[5mC]; antisense) [Compound 958533] | 3

Same assay, conditions: Table 12; A-431 cells, 5,000 cells per well, free uptake, 2,000 nM modified oligonucleotide, approx. 48 hours; RTS36584; normalized to RIBOGREEN; Yap1 mRNA relative to untreated control cells

Row | Substance | YAP1 (% UTC)
20 | 958599 (kT*kT*k[5mC]*dA*dA*dG*dA*dA*dT*dA*d[5mC]*d[5mC]*d[5mC]*kA*kG*kT; antisense) [Compound 958599] | 5
21 | 958519 (k[5mC]*k[5mC]*k[5mC]*d[5mC]*dT*dA*dG*dG*d[5mC]*dA*d[5mC]*dT*dA*kT*k[5mC]*k[5mC]; antisense) [Compound 958519] | 20
22 | 958669 (kG*k[5mC]*kT*dA*dT*d[5mC]*dT*dT*dT*dG*dG*dA*dT*k[5mC]*k[5mC]*kA; antisense) [Compound 958669] | 76
23 | 958744 (antisense kG*k[5mC]*kA*dT*dA*d[5mC]*dT*dG*dG*dT*dG*d[5mC]*d[5mC]*k[5mC]*k[5mC]*kA) [Compound 958744] | 45

Same assay, conditions: Table 13; A-431 cells, 5,000 cells per well, free uptake, 2,000 nM modified oligonucleotide, approx. 48 hours; RTS36584; normalized to RIBOGREEN; Yap1 mRNA relative to untreated control cells

Row | Substance | YAP1 (% UTC)
24 | 958755 (antisense kT*kA*kA*d[5mC]*dA*dT*dA*dA*dG*dA*d[5mC]*dA*d[5mC]*kG*kG*kA) [Compound 958755] | 12
25 | 958580 (kA*kT*kA*dA*dT*d[5mC]*dT*dT*dA*dA*dT*d[5mC]*dT*kG*kT*kG; antisense) [Compound 958580] | 4

Same assay, conditions: Table 26; Yap1 mRNA by 3-10-3 cEt gapmers targeting SEQ ID NO.: 1, and 2; percent of untreated control

Row | Substance | YAP1 (% UTC)
26 | 1075116 (k[5mC]*kT*kT*dA*dA*d[5mC]*dA*dT*dT*dT*dA*dA*dT*kG*kG*k[5mC]; antisense) [compound 1075116] | 15
27 | 1075308 (antisense kA*kA*kT*dT*dA*dA*dA*d[5mC]*dG*dA*dA*dA*d[5mC]*kA*k[5mC]*kG) [compound 1075308] | 97
28 | 1075948 (antisense kG*kG*kA*d[5mC]*dT*dA*dA*dA*dG*dA*dA*dT*dA*k[5mC]*kA*kG) [compound 1075948] | 31

Same assay, conditions: Table 28; Yap1 mRNA as percent of untreated control; 3-10-3 cEt gapmers targeting SEQ ID NO.: 1, and 2

Row | Substance | YAP1 (% UTC)
29 | 1074478 (k[5mC]*k[5mC]*kT*dA*dG*dG*dT*dT*d[5mC]*d[5mC]*dG*dA*d[5mC]*kA*kA*kA; antisense) [compound 1074478] | 69
30 | 1076206 (k[5mC]*kA*kA*dT*dA*dA*dA*d[5mC]*dT*dT*dA*d[5mC]*d[5mC]*k[5mC]*kT*kT; antisense) [compound 1076206] | 55
31 | 1075278 (antisense kT*kA*kT*dA*d[5mC]*dT*dA*dA*d[5mC]*dA*dT*dT*d[5mC]*kA*k[5mC]*kG) [compound 1075278] | 48
32 | 1074254 (antisense kA*kT*k[5mC]*dT*dG*dG*dG*dA*d[5mC]*dA*dG*d[5mC]*dA*kT*kG*kG) [compound 1074254] | 13

Same assay, conditions: Table 29; Yap1 mRNA as percent of untreated control; 3-10-3 cEt gapmers targeting SEQ ID NO.: 1, and 2

Row | Substance | YAP1 (% UTC)
33 | 1074127 (k[5mC]*k[5mC]*kA*d[5mC]*dT*dG*dG*dT*d[5mC]*dT*dG*dG*d[5mC]*kG*kG*k[5mC]; antisense) [compound 1074127] | 57
34 | 1074575 (DNA kA*k[5mC]*kA*dT*dT*dA*dT*dG*dA*dA*d[5mC]*d[5mC]*dT*kA*k[5mC]*kT) [compound 1074575] | 14
35 | 1075727 (kT*kT*kA*dT*d[5mC]*dG*dG*dA*dG*dG*d[5mC]*dT*dT*k[5mC]*kG*k[5mC]; antisense) [compound 1075727] | 31
36 | 1074927 (antisense kT*kA*k[5mC]*dA*dA*d[5mC]*dA*dG*dG*d[5mC]*d[5mC]*dT*dG*k[5mC]*kA*kA) [compound 1074927] | 74

Same assay, conditions: Table 34; Yap1 mRNA as percent of untreated control; 3-10-3 cEt gapmers targeting SEQ ID NO: 1 and 2; single dose

Row | Substance | YAP1 (% UTC)
37 | 1076052 (kG*k[5mC]*kA*dA*dT*dA*dA*dA*dG*d[5mC]*dT*dG*dA*kA*k[5mC]*kT; antisense) [compound 1076052] | 23
38 | 1076468 (k[5mC]*kA*kT*dT*dA*d[5mC]*dT*dA*d[5mC]*dT*dA*dA*dG*kA*kG*kT; antisense) [compound 1076468] | 91
39 | 1074836 (kA*kA*k[5mC]*dA*dA*d[5mC]*dA*dT*dG*d[5mC]*dT*dT*dG*k[5mC]*kG*kA; antisense) [compound 1074836] | 27
40 | 1075732 (kA*kA*kT*dA*dA*d[5mC]*d[5mC]*dT*d[5mC]*dG*dA*dG*dT*kG*k[5mC]*kT; antisense) [compound 1075732] | 36
41 | 1076276 (k[5mC]*kT*kT*dT*dA*dG*dG*dA*dG*dT*d[5mC]*dA*dG*kA*kA*k[5mC]; antisense) [compound 1076276] | 59

Same assay, conditions: Table 35; Yap1 mRNA as percent of untreated control; 3-10-3 cEt gapmers targeting SEQ ID NO: 1 and 2; single dose

Row | Substance | YAP1 (% UTC)
42 | 1074581 (DNA kA*kA*k[5mC]*d[5mC]*dA*d[5mC]*dT*dA*dT*dA*dA*dA*dG*k[5mC]*kT*kT; antisense) [compound 1074581] | 18
43 | 1074165 (k[5mC]*k[5mC]*k[5mC]*dA*dG*dG*d[5mC]*dG*dA*dG*d[5mC]*dG*dA*kG*kG*kG; antisense) [compound 1074165] | 90
44 | 1074805 (kG*kT*kA*dG*d[5mC]*dA*dA*dA*dG*dT*d[5mC]*dA*d[5mC]*kT*kT*k[5mC]; antisense) [compound 1074805] | 9
45 | 1074357 (antisense k[5mC]*kG*kA*dG*dG*dG*dA*d[5mC]*dA*d[5mC]*dT*dG*dT*kA*kG*k[5mC]) [compound 1074357] | 12
46 | 1076373 (antisense kA*kA*k[5mC]*dG*dG*dA*dT*dA*dT*dA*d[5mC]*dA*dA*kT*kA*kA) [compound 1076373] | 10
